{"source": "patent US20260137743A1", "about": "“METHODS OF RELIEVING PAIN” (Infinitum Health, LLC, priority 2023, published 2026)", "origin": "cited, not measured here", "details": "isolated from Incarvillea sinensis", "data": [{"smiles": "COc1cc([C@H]2[C@H](C(=O)O[C@@H]3C[C@@H]4[C@@H](CN(C)C[C@@H]4C)[C@@H]3C)[C@H](c3ccc(O)c(OC)c3)[C@H]2C(=O)O[C@@H]2C[C@@H]3[C@@H](CN(C)C[C@@H]3C)[C@@H]2C)ccc1O", "note": "[Incarvillateine, incarvillateine]", "values": [{"measurement": "analgesic (pain relief) activity", "value": "significant analgesic (pain relief) activity"}]}]}
